These results are taken from patent US4819645A, “Dermal substance collection method” (priority 1987, dated 1989).

Read-outs that look alike come from different tables or passages of the source.

The conditions of data set [1]: Rhesus monkeys, maximum percentage of administered dose collected, liquid bridge diameter 9 mm.
Data set [2] is classed as in vivo, Rhesus monkey. Particulars: 14C-parathion intravenously; activated charcoal gel DSCD, skin pre-treated with Azone. From the text: Extensive In vivo testing of the dermal substance collection device (DSCD) has been undertaken in rabbits (R, Rhesus monkeys (M) and humans (H). […]. Experimental conditions were varied in order to evaluate various binding reservoirs including activated charcoal dispersed in a saline/gel matrix, various DSCD embodiments which provide a liquid bridge including saline, immobilized by various gels such as agarose or polyvinyl alcohol as the gelling agent, various DSCD embodiments which provide persistent occlusive contact of the liquid bridge with the skin (single layer adhesive tape overlying the DSCD liquid bridge/binding reservoir complex vs multiple tape/foil layers enveloping a liquid bridge/binding reservoir complex vs multiple tape/foil layers enveloping a liquid bridge/binding reservoir complex which protrudes into the skin effecting positive pressure during emplacement), various preparatory procedures (shaving, clipping of hair, use of a chemical depilitant, cleansing of the skin with soap and isopropyl alcohol), and various skin penetration enhancing agents (Azone, DET, DMSO).
In a typical animal experiment, a Rhesus monkey is anesthetized with ketamine 10 mg/kg and the hair on the chest and abdomen is clipped prior to washing the underlying skin (with a mild soap or isopropyl alcohol). […]

Data set [3] can be described thus: Collection of THC by DSCDs after oral THC, RIA after toluene/ethanol extraction. Conditions: cancer patient, oral 10 mg THC, up to 48 hours, lower legs, 1 cm gel.
Data set [4] is described as follows: Collection of cimetidine by DSCDs in a healthy volunteer. Conditions: 5 mg/kg orally or intravenously, 24 hours, 25 mm liquid bridge, agarose gel with activated charcoal.
Setting [5] is: parent compound and metabolites.

On to `CN1CCCC1c1cccnc1` (stereo not shown) [NICOTINE, nicotine], for which the “EXTENT OF TRANSDERMAL MIGRATION” value in data set [1] (setting [5]) worked out at 2.5 % Dose × 10^4.

For the compound `CCOP(=S)(OCC)Oc1ccc([N+](=O)[O-])cc1` [14C-parathion], the “transdermal collection (in words)” value in data set [2] is given as “particularly satisfactory transdermal collection”.

Consider inulin, for which, in data set [1] (setting [5]), the “EXTENT OF TRANSDERMAL MIGRATION” value is listed as 0.5 % Dose × 10^4.

On to `Cn1c(=O)c2[nH]cnc2n(C)c1=O` [THEOPHYLLINE, theophylline], for which the “EXTENT OF TRANSDERMAL MIGRATION” value in data set [1] (setting [5]) was determined as 25 % Dose × 10^4.

`CCOP(=S)(OCC)Oc1ccc([N+](=O)[O-])cc1` [PARATHION, parathion]: the “EXTENT OF TRANSDERMAL MIGRATION” value in data set [1] (setting [5]) was 0.7 % Dose × 10^4.

Consider `CCCCCc1cc(O)c2c(c1)OC(C)(C)[C@@H]1CCC(C)=C[C@@H]21` [TETRAHYDROCANNABINOL], for which the “amount of THC collected from DSCDs” value in data set [3] (agarose gel without activated charcoal) amounted to 224 ± 22 pg; in data set [3] (gel with activated charcoal), 601 ± 302 pg. Moreover, the “EXTENT OF TRANSDERMAL MIGRATION” value in data set [1] (parent compound only) is reported as 0.1 % Dose × 10^4.

As for `CN/C(=N/CCSCc1nc[nH]c1C)NC#N` [CIMETIDINE, cimetidine], the “EXTENT OF TRANSDERMAL MIGRATION” value in data set [1] (parent compound only) is recorded as 8.3 % Dose × 10^4. Also, in data set [4], the “amount of cimetidine collected from DSCDs” value is 62 to 461 ng.
